Reference: article PMC7026418, “The kinase polypharmacology landscape of clinical PARP inhibitors” (Scientific Reports, 2020)
Like-named read-outs stand apart in the source and are kept apart here.

Key:
Experiment in all cases: biochemical
Parameters in all cases: DiscoveRx KINOMEscan active site-directed competition binding; percent of control kinase bound to immobilised ligand
[1] = molecular target: CDK4 (Homo sapiens, UniProt P11802)
[2] = molecular target: T1, DLK (Homo sapiens, UniProt Q12852)
T1 construct: gene MAP3K12
T1 sequence (Q12852 1-859): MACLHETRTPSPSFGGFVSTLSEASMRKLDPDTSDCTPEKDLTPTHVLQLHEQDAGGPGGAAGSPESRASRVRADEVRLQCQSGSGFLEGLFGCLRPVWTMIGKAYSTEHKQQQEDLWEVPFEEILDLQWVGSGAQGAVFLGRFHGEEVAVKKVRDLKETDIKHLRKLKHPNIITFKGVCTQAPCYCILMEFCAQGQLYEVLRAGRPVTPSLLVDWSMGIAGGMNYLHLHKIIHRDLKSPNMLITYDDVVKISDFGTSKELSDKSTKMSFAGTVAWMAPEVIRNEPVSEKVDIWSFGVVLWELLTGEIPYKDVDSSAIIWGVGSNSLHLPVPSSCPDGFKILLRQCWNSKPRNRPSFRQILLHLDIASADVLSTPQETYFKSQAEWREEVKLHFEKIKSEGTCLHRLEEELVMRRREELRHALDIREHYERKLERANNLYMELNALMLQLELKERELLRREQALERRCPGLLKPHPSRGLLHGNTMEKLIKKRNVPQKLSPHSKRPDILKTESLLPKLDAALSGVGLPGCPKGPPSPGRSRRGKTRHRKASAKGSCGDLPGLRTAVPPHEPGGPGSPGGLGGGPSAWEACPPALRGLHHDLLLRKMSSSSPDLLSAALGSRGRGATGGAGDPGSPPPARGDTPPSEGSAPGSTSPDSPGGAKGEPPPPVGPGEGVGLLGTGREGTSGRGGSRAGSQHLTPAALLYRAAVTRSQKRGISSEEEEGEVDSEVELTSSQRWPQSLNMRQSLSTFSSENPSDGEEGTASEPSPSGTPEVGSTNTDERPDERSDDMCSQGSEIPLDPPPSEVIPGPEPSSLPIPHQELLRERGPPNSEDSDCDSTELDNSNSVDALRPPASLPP

[3] = molecular target: CAMK1 (Homo sapiens, UniProt Q14012)
Chain of CAMK1 (Q14012 whole entry): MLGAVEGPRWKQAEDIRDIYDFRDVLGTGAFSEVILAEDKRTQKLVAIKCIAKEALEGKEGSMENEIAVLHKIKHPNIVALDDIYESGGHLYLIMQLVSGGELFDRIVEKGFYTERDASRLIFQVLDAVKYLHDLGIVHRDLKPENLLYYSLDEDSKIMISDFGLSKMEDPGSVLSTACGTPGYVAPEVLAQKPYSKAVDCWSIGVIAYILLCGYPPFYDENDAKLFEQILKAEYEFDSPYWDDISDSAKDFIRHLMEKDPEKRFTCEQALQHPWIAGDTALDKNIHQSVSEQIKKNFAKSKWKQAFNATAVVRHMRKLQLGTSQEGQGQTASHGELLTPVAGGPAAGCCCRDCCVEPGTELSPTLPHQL

[4] = molecular target: STK16 (Homo sapiens, UniProt O75716)
Chain of STK16 (O75716 whole entry): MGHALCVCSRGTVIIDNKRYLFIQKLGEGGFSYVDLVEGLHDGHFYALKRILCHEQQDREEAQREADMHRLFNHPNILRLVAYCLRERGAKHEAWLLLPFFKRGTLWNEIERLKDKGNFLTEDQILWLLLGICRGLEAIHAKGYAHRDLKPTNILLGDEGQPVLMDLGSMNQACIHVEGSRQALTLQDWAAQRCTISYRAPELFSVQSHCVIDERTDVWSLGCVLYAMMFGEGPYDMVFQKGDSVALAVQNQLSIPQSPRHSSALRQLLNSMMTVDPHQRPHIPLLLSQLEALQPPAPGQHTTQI

[5] = molecular target: T2, MUSK (Homo sapiens, UniProt O15146)
T2 sequence (O15146 1-869): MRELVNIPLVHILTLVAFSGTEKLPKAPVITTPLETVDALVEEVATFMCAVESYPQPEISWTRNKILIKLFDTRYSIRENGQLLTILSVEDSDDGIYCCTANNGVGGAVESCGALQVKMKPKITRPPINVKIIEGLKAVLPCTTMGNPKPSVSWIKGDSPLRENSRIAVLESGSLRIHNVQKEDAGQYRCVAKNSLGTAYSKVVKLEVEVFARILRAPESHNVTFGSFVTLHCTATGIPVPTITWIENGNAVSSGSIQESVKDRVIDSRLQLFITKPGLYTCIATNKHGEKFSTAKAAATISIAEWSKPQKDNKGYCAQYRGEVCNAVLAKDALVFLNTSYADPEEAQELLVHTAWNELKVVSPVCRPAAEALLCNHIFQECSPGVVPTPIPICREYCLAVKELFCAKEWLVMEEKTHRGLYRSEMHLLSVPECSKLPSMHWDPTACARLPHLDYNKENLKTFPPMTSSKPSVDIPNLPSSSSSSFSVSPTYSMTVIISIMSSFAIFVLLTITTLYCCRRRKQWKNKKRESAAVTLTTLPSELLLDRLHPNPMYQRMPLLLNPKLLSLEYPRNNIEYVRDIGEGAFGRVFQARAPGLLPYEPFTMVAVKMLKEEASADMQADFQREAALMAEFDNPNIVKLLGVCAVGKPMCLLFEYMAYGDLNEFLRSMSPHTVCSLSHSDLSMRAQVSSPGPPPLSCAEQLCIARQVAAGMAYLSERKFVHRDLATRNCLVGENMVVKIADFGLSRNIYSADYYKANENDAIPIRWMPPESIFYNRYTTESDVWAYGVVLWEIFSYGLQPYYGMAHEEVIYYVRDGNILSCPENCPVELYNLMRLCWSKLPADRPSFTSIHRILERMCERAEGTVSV

[6] = molecular target: T3, TXK (Homo sapiens, UniProt P42681)
T3 sequence (P42681 1-527): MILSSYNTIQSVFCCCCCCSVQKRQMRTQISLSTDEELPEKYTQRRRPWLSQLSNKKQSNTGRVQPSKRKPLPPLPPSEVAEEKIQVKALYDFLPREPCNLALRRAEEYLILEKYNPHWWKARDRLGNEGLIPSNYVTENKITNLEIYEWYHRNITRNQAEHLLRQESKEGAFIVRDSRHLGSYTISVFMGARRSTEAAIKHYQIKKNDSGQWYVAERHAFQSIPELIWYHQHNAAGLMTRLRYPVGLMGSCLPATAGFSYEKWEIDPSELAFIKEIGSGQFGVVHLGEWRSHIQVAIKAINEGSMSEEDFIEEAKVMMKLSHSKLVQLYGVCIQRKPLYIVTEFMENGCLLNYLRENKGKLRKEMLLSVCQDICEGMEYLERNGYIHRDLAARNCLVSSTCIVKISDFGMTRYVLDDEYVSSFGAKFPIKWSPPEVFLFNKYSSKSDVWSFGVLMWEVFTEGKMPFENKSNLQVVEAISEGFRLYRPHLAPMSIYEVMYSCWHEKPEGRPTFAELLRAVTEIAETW

[7] = molecular target: CSNK1D (Homo sapiens, UniProt P48730)
Chain of CSNK1D (P48730 whole entry): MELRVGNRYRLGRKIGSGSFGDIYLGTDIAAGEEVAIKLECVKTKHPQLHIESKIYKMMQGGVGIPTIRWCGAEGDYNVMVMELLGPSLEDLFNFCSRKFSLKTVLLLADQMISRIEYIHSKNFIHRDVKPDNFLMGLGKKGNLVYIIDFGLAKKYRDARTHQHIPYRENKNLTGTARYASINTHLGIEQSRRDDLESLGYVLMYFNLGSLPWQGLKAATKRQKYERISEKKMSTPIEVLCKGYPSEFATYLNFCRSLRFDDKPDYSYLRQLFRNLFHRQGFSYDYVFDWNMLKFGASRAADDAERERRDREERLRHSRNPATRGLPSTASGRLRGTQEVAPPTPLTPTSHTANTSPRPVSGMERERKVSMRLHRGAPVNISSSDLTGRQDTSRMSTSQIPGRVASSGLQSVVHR

[8] = molecular target: SRPK3 (Homo sapiens, UniProt Q9UPE1)
Chain of SRPK3 (Q9UPE1 whole entry): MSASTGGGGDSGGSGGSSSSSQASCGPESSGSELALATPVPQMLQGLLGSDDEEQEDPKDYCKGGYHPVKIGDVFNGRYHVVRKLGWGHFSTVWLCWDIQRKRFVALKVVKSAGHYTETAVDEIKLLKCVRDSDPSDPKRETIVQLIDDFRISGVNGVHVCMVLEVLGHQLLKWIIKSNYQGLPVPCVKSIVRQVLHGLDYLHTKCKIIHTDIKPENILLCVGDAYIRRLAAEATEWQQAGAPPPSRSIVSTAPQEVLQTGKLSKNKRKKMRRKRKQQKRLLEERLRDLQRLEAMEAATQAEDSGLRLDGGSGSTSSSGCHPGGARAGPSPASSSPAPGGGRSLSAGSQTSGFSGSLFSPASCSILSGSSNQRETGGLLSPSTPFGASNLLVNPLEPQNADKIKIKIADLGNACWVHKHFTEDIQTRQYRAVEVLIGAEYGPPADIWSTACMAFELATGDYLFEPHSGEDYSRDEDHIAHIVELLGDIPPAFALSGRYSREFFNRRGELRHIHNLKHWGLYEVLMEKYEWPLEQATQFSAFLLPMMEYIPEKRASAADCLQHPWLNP

[9] = read-out: Niraparib (MK-4827) / %Ctrl @ 10000nM
[10] = read-out: Olaparib / %Ctrl @ 10000nM
[11] = read-out: Rucaparib / %Ctrl @ 10000nM, binding competition, % of control
[12] = read-out: Talazoparib (BMN 673) / %Ctrl @ 10000nM

Chain of CDK4 (P11802 whole entry): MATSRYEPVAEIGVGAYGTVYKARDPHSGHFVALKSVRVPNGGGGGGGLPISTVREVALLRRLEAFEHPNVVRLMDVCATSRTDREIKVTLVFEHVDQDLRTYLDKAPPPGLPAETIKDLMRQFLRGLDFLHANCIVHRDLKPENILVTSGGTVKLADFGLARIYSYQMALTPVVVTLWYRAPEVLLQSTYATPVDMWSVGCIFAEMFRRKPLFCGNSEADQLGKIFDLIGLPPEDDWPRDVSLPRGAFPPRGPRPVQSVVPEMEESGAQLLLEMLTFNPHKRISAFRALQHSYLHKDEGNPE

Q: With `NC(=O)c1cccc2cn(-c3ccc([C@@H]4CCCNC4)cc3)nc12` [Niraparib] as the compound, how does the percent of control binding at 10 µM [1, 9] read?
A: 100%

Q: And the percent of control binding at 10 µM [2, 9]?
A: 100%

Q: And the percent of control binding at 10 µM [3, 9]?
A: 80%

Q: And the percent of control binding at 10 µM [4, 9]?
A: 93%

Q: What about the percent of control binding at 10 µM [5, 9] of the same compound?
A: 82%

Q: And the percent of control binding at 10 µM [6, 9]?
A: 86%

Q: And the percent of control binding at 10 µM [7, 9]?
A: 57%

Q: What about the percent of control binding at 10 µM [8, 9] of the same compound?
A: 71%

Q: Which results are given for `O=C(c1cc(Cc2n[nH]c(=O)c3ccccc23)ccc1F)N1CCN(C(=O)C2CC2)CC1` [Olaparib]?
A: percent of control binding at 10 µM [1, 10]: 85%; percent of control binding at 10 µM [2, 10]: 96%; percent of control binding at 10 µM [3, 10]: 100%; percent of control binding at 10 µM [4, 10]: 83%; percent of control binding at 10 µM [5, 10]: 100%; percent of control binding at 10 µM [6, 10]: 86%; percent of control binding at 10 µM [7, 10]: 96%; percent of control binding at 10 µM [8, 10]: 84%

Q: `CNCc1ccc(-c2[nH]c3cc(F)cc4c3c2CCNC4=O)cc1` [Rucaparib] was tested. Which percent of control binding at 10 µM [1, 11] did it give?
A: 94%

Q: And the percent of control binding at 10 µM [2, 11]?
A: 91%

Q: And the percent of control binding at 10 µM [3, 11]?
A: 90%

Q: What about the percent of control binding at 10 µM [4, 11] of the same compound?
A: 100%

Q: What about the percent of control binding at 10 µM [5, 11] of the same compound?
A: 96%

Q: What about the percent of control binding at 10 µM [6, 11] of the same compound?
A: 100%

Q: And the percent of control binding at 10 µM [7, 11]?
A: 63%

Q: What about the percent of control binding at 10 µM [8, 11] of the same compound?
A: 85%

Q: Which percent of control binding at 10 µM [1, 12] does the source give for `Cn1ncnc1[C@H]1c2n[nH]c(=O)c3cc(F)cc(c23)N[C@@H]1c1ccc(F)cc1` [Talazoparib] here?
A: 100%

Q: What about the percent of control binding at 10 µM [2, 12] of the same compound?
A: 100%

Q: What about the percent of control binding at 10 µM [3, 12] of the same compound?
A: 95%

Q: And the percent of control binding at 10 µM [4, 12]?
A: 90%

Q: And the percent of control binding at 10 µM [5, 12]?
A: 100%

Q: What about the percent of control binding at 10 µM [6, 12] of the same compound?
A: 91%

Q: And the percent of control binding at 10 µM [7, 12]?
A: 100%

Q: What about the percent of control binding at 10 µM [8, 12] of the same compound?
A: 100%
